Assay [1] deals with T1, Histone-lysine N-methyltransferase SETD7 (Homo sapiens) (UniProt Q8WTS6).
T1 sequence (whole entry): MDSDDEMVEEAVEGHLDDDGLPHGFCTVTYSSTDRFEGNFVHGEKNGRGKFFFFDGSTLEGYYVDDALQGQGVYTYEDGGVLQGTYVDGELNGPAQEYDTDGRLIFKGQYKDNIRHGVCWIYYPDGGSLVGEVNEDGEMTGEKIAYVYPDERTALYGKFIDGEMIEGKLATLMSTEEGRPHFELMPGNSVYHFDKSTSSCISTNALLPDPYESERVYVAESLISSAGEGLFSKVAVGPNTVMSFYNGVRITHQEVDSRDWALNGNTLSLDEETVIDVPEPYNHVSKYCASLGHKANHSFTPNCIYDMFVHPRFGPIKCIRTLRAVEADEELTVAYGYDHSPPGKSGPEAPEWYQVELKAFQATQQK
The assay is described as follows: Inhibition of human SET7 overexpressed in Escherichia coli BL21 (DE3) cells at 12.5 uM preincubated for 15 mins followed by addition of SAM as substrate and biotinylated Histone H3 (1-50) peptide measured after 30 mins by AlphaLISA assay relative to control. In general terms: Alpha assays give light when donor and acceptor beads are brought close together.

The target in assay [2] is T1, Histone-lysine N-methyltransferase SETD7 (Homo sapiens). The experiment in a line: Inhibition of human SET7 overexpressed in Escherichia coli BL21 (DE3) cells at 25 uM preincubated for 15 mins followed by addition of SAM as substrate and biotinylated Histone H3 (1-50) peptide measured after 30 mins by AlphaLISA assay relative to control.
The target is the same in assay [3]. The experiment in a line: Inhibition of human SET7 overexpressed in Escherichia coli BL21 (DE3) cells at 50 uM preincubated for 15 mins followed by addition of SAM as substrate and biotinylated Histone H3 (1-50) peptide measured after 30 mins by AlphaLISA assay relative to control.
Assay [4] deals with T2, Histone-lysine N-methyltransferase SETD7 (Homo sapiens, UniProt Q8WTS6).
T2 sequence (Q8WTS6 whole entry): T1 sequence (whole entry)
The assay is described as follows: Inhibition of human SET7 overexpressed in Escherichia coli BL21 (DE3) cells preincubated for 15 mins followed by addition of SAM as substrate and biotinylated Histone H3 (1-50) peptide measured after 30 mins by AlphaLISA assay relative to control.

Data on 22 compounds can be found in ChEMBL document CHEMBL4627299, “Computational discovery and biological evaluation of novel inhibitors targeting histone-lysine N-methyltransferase SET7” (Bioorg Med Chem, 2020).

The inhibition is the relative decrease from the control value, in per cent. Lower therefore signals little suppression. In the case of `COc1c(O)cc(O)c2c(=O)cc(-c3ccccc3)oc12`, the inhibition was determined as 19% in assay [1], 10% in assay [2] and 4% in assay [3].
`COc1cc(O)c(CC=C(C)C)c(O)c1C(=O)/C=C/c1ccc(O)cc1`: the inhibition in assay [1] was found to be 9%; in assay [2] it was 11%; in assay [3], 18%.
As to `CC(C)C[C@H](NC(=O)[C@H](Cc1ccccc1)NC(=O)c1cnccn1)B(O)O`, the inhibition came to 18% in assay [1], 19% in assay [2] and 24% in assay [3].
One may read the IC50 as the midpoint of a concentration-inhibition curve. A high value points to weaker potency in that assay. In assay [4], `COc1ccc(-c2oc3cc(O)cc(O)c3c(=O)c2O)cc1` [KAEMPFERIDE] yielded an IC50 of over 200 µM.
As to `CCn1cc(C(=O)O)c(=O)c2cc(F)c(N3CCNC(C)C3)c(F)c21` (stereo not drawn), the inhibition in assay [1] came out at 19%; in assay [2], 23%; in assay [3], 14%.
Consider `O=C(Nc1c(Cl)cncc1Cl)c1ccc(OC(F)F)c(OCC2CC2)c1`, for which the figures for the inhibition in assay [1], in assay [2] and in assay [3] were 27%, 19% and 23%, respectively.
`Cc1oncc1C(=O)Nc1ccc(C(F)(F)F)cc1` came in with an inhibition in assay [2] of 4%.
Consider `COC(=O)[C@H](Cc1ccccc1)NC(=O)[C@@H](N)CC(=O)O`, for which the values for the inhibition in assay [1], in assay [2] and in assay [3] were 17%, 32% and 10%, respectively.
Take `O=c1c(O)c(-c2ccc(O)cc2O)oc2cc(O)cc(O)c12` [MORIN]: half-maximal inhibition in assay [4] (IC50) was put at 6.02 µM. The values for the inhibition in assay [1], in assay [2] and in assay [3] were 40%, 62% and 87%, respectively.
`CC(C)=CCC1=C(O)C(=O)c2ccccc2C1=O`: the inhibition was 3% in assay [1] and 4% in assay [2].
Take `CCN1CCCC1CNC(=O)c1cc(S(=O)(=O)CC)c(N)cc1OC` (stereo not drawn): the inhibition in assay [1] was 14%; in assay [2] it was 14%; in assay [3], 3%.
`Cc1cnc(NC(=O)C2=C(O)c3ccccc3S(=O)(=O)N2C)s1`: the inhibition in assay [1] turned out to be 18%; in assay [2], 29%; in assay [3], 23%.
In assay [4], `O=c1cc(-c2ccc(O)c(O)c2)oc2cc(O)cc(O)c12` [LUTEOLIN] yielded an IC50 of 6.08 µM.
Compound `O=C1C[C@@H](c2ccc(O)c(O)c2)Oc2cc(O)cc(O)c21` [ERIODICTYOL] registered an IC50 in assay [4] of over 200 µM.
Consider `O=c1c(O)c(-c2ccc(O)cc2)oc2cc(O)cc(O)c12` [KAEMPFEROL], for which the IC50 in assay [4] was over 200 µM.
For the compound `C=CC(C)(C)c1cc(/C=C/C(=O)c2ccc(O)cc2)c(OC)cc1O`, the inhibition was determined as 17% in assay [1], 28% in assay [2] and 39% in assay [3].
Regarding `O=C(N/N=C/c1ccc([N+](=O)[O-])o1)c1ccc(O)cc1`, the figures for the inhibition in assay [1], in assay [2] and in assay [3] were 8%, 18% and 7%, respectively.
In the same order, the values of `O=c1c(-c2ccc(O)cc2)coc2cc(O)ccc12` are 5%, 6% and 14%.
`Cc1cc([N+](=O)[O-])ccc1NS(=O)(=O)c1cc(Cl)ccc1Cl`: the inhibition in assay [1] worked out at 17%; in assay [2], 26%; in assay [3], 26%.
As for `CC(C)=CC[C@@H](O)C1=CC(=O)c2c(O)ccc(O)c2C1=O` [SHIKONIN], in assay [4], half-maximal inhibition (IC50) required 21.6 µM. Further, the inhibition in assay [1] was determined as 50%; in assay [2], 72%; in assay [3], 90%.
In turn, `O=c1c(O)c(-c2ccccc2)oc2cc(O)cc(O)c12` [GALANGIN] gave an IC50 in assay [4] of over 200 µM.
As for `N[C@@H](CC(=O)N1CCn2c(nnc2C(F)(F)F)C1)Cc1cc(F)c(F)cc1F`, the inhibition in assay [2] is 6%.
